Like-named read-outs stand apart in the source and are kept apart here.
Tests used:
[1] = MTT assay for cell viability; conditions: mouse, N9 microglial cells, % Cell Viability, 24 h, MTT, mean ± S.E.M.; for viability at 24 h, 25 µM: 25 μM compound; for viability at 24 h, 50 µM: 50 μM compound
Procedure: (§1) The N9 microglial cell line was obtained from China Cell Line Bank. The cells were grown at 37 °C in IMDM supplemented with 10% heat-inactivated FBS under a humidified atmosphere of 5% CO2. In this experiment, cells were allowed to acclimate for 24 h before treatments.
(§2) Cell viability was evaluated by the MTT reduction assay [36]. Cells were seeded in 96-well plates at a density of 2 × 10^4 cells/well and allowed to grow for 24 h before treatments. Thereafter, 100 μL medium containing various concentrations (0–50 μM) of compounds were added and incubated for another 24 h. MTT was dissolved in DD water (5 mg/mL) and 10 μL were added to each well. After 4 h, the medium was removed and 100 μL DMSO were filled in each well. The optical density was measured at 490 nm on a Flexstation 3 (Molecular Devices, Silicon Valley, CA, USA).

[2] = test system: LPS-induced NO production in N9 microglial cells; experiment: LPS-induced NO production (Griess assay); type: cell-based, mouse; conditions: for Nitrite: control 4.60, LPS group 31.81 μM; for Nitrite / inhibition at 25 µM / inhibition at 50 µM / % Inhibition of NO Production: mean ± S.E.M.; for inhibition at 25 µM / inhibition at 50 µM: Mus musculus
Procedure: Figure 2 Inhibitory effects of TBIII (A) and t-HL (B) in LPS-stimulated N9 microglial cells. Cells were pretreated with different concentrations of TBIII and t-HL 1 h prior to the addition of LPS (100 ng/mL) and were further incubated for 24 h. NO production was determined by using the Griess reagent. IC50 values and curve fitting were determined using Graphpad Prism (GraphPad, Avenida, CA, USA).
Accumulation of nitrite, a metabolite of NO in the culture media, was measured by Griess assay as previously reported. Briefly, cells were stimulated with 100 ng/mL of LPS for 24 h in the presence of the test compounds (0–50 μM).

in vitro = conditions: mouse, % Cell Viability
Procedure: as §1, §2

[3] = 25 μM compound, LPS 100 ng/mL, 24 h
[4] = 50 μM compound, LPS 100 ng/mL, 24 h
[5] = N9, 24 h, read-out: % Inhibition of NO Production, 25 μM compound, LPS 100 ng/mL, 24 h
[6] = N9, 24 h, read-out: % Inhibition of NO Production, 50 μM compound, LPS 100 ng/mL, 24 h
[7] = 25 μM compound, LPS 100 ng/mL, 24 h, 25 µM
[8] = 50 μM compound, LPS 100 ng/mL, 24 h, 50 µM
[9] = N9, 24 h, 25 μM compound, LPS 100 ng/mL, 24 h, read-out: % Inhibition of NO Production
[10] = N9, 24 h, 50 μM compound, LPS 100 ng/mL, 24 h, read-out: % Inhibition of NO Production
[11] = N9, 25 μM compound, LPS 100 ng/mL, 24 h, read-out: % Inhibition of NO Production
[12] = N9, 50 μM compound, LPS 100 ng/mL, 24 h, read-out: % Inhibition of NO Production

Row | Structure (SMILES) | viability at 24 h, 25 µM [1] [%] | viability at 24 h, 50 µM [1] [%] | Nitrite [2, 3] [µM] | Nitrite [2, 4] [µM] | inhibition at 25 µM [2, 9] [%] | inhibition at 50 µM [2, 10] [%] | also measured
1 | CC(CCC1(O)OC2CC3C4CCC5CC(OC6OC(CO)C(O)C(O)C6OC6OC(CO)C(O)C(O)C6O)CCC5(C)C4CCC3(C)C2C1C)COC1OC(CO)C(O)C(O)C1O (stereo not drawn) [Compound 6, Anemarnoside B] | 115 ± 5.52 | 104 ± 16.5 | 40.89 ± 2.04 | 26.38 ± 2.63 | – | – | inhibition at 25 µM [2, 5]: -28.3 ± 6.4%; inhibition at 50 µM [2, 6]: 17.2 ± 8.26%
2 | CC1=C(CCC(C)COC2OC(CO)C(O)C(O)C2O)OC2CC3C4CCC5CC(OC6OC(CO)C(O)C(O)C6OC6OC(CO)C(O)C(O)C6O)C(O)CC5(C)C4CCC3(C)C12 (stereo not drawn) [Compound 10, Timosaponin D] | – | – | 29.22 ± 0.60 | 20.78 ± 2.00 | – | – | inhibition at 25 µM [2, 5]: 8.57 ± 1.87%; inhibition at 50 µM [2, 6]: 34.8 ± 6.27%; viability at 24 h, 25 µM (in vitro): 111 ± 4.39%; viability at 24 h, 50 µM (in vitro): 110 ± 2.57%
3 | CC1=C(CCC(C)COC2OC(CO)C(O)C(O)C2O)OC2CC3C4CCC5CC(OC6OC(CO)C(O)C(O)C6OC6OC(CO)C(O)C(O)C6O)CCC5(C)C4CCC3(C)C12 (stereo not drawn) [Compound 12, Macrostemonoside F] | – | – | 19.64 ± 1.21 | 11.82 ± 1.03 | – | – | % Inhibition of NO Production [2, 7]: 38.33 ± 3.80 %; % Inhibition of NO Production [2, 8]: 62.89 ± 3.22 %; % Cell Viability (N9 microglial cells; mouse, 24 h, 25 µM): 104.74 ± 3.16%; % Cell Viability (N9 microglial cells; mouse, 24 h, 50 µM): 105.77 ± 2.84%
4 | CCC1C(OC(=O)CCC(C)COC2OC(CO)C(O)C(O)C2O)CC2C3CCC4CC(OC5OC(CO)C(O)C(O)C5OC5OC(CO)C(O)C(O)C5O)CCC4(C)C3CCC12C (stereo not drawn) [Compound 19, Anemarnoside A] | – | – | 23.63 ± 1.13 | 9.83 ± 0.30 | – | – | inhibition at 25 µM [2, 5]: 25.2 ± 8.72%; inhibition at 50 µM [2, 6]: 66.9 ± 2.82%; viability at 24 h, 25 µM (in vitro): 124 ± 3.13%; viability at 24 h, 50 µM (in vitro): 126 ± 3%
5 | C=CCOC1O[C@H](CO)[C@@H](O)[C@H](O)[C@H]1O (stereo in doubt) [Compound 26, α-D-Glucose monoallyl ether] | 107.2 ± 0.63 | 105 ± 16.1 | 29.57 ± 0.71 | 22.60 ± 2.19 | 7.13 ± 2.23 | 29 ± 8.43 | –
6 | O=c1cc(-c2ccc(O)cc2)oc2c([C@@H]3O[C@H](CO)[C@@H](O)[C@H](O)[C@H]3O)c(O)cc(O)c12 [Compound 21, Vitexin] | 90.5 ± 2.51 | 81.8 ± 4.38 | 28.88 ± 1.38 | 17.81 ± 1.13 | – | – | inhibition at 25 µM [2, 11]: 9.39 ± 4.33%; inhibition at 50 µM [2, 12]: 44.1 ± 3.56%
7 | C[C@@H]1O[C@@H](O[C@H]2[C@H](OC(=O)[C@]34CCC(C)(C)C[C@H]3C3=CC[C@@H]5[C@@]6(C)C[C@H](O)[C@H](O[C@@H]7O[C@H](CO)[C@@H](O)[C@H](O[C@@H]8O[C@H](CO)[C@@H](O)[C@H](O)[C@H]8O)[C@H]7O)[C@@](C)(CO)[C@@H]6CC[C@@]5(C)[C@]3(C)C[C@H]4O)OC[C@H](O)[C@@H]2O)[C@H](O)[C@H](O)[C@H]1O[C@@H]1OC[C@@H](O)[C@H](O[C@@H]2OC[C@](O)(CO)[C@H]2O)[C@H]1O [Compound 17, Polygalacin D2] | 97.5 ± 1.83 | 88 ± 8.92 | 31.14 ± 0.78 | 26.21 ± 0.82 | 2.25 ± 2.46 | 17.7 ± 3.14 | –
8 | Nc1ncnc2c1ncn2[C@@H]1O[C@H](CO)[C@@H](O)[C@H]1O [Compound 25, Adenosine] | 81.6 ± 1.26 | 80.5 ± 6.19 | 27.43 ± 1.35 | 20.69 ± 1.74 | 13.9 ± 4.23 | 35.1 ± 5.47 | –
9 | COC1(CCC(C)COC2OC(CO)C(O)C(O)C2O)OC2CC3C4CC=C5CC(O)CC(OC6OC(C)C(O)C(OC7OCC(O)C(O)C7O)C6OC6OC(CO)C(O)C(O)C6O)C5(C)C4CCC3(C)C2C1C (stereo not drawn) [Compound 9, Spicatoside B] | – | – | 34.46 ± 0.41 | 24.20 ± 0.29 | – | – | inhibition at 25 µM [2, 5]: -8.22 ± 1.3%; inhibition at 50 µM [2, 6]: 24 ± 0.9%; viability at 24 h, 25 µM (in vitro): 99.7 ± 3.13%; viability at 24 h, 50 µM (in vitro): 94.3 ± 3.21%
10 | COc1cc(O)c(C(=O)c2ccc(O)cc2)c(O)c1 [Compound 1, 2,6,4′-trihydroxy-4-methoxybenzophenone] | 98.7 ± 8.27 | 97.5 ± 1.85 | 26.78 ± 1.27 | 19.29 ± 0.10 | 15.3 ± 9.4 | 41.7 ± 3.9 | –
11 | O=C(c1ccc(O)cc1)c1c(O)cc(O)cc1O [Compound 3, Iriflophene] | 107 ± 3.62 | 113 ± 5.32 | 26.06 ± 1.24 | 20.41 ± 0.38 | 18.1 ± 3.88 | 35.9 ± 1.2 | –
12 | CC1=C(CCC(C)COC2OC(CO)C(O)C(O)C2O)OC2CC3C4CCC5CC(OC6OC(CO)C(O)C(O)C6OC6OC(CO)C(O)C(O)C6O)CCC5(C)C4CCC3(C)C12 (stereo not drawn) [Compound 13, Timosaponin C] | – | – | 24.24 ± 1.32 | 13.36 ± 0.56 | – | – | % Inhibition of NO Production [2, 7]: 23.94 ± 4.13%; % Inhibition of NO Production [2, 8]: 58.10 ± 1.75 %; inhibitory activity on NO production (in words) ([2]; compared with compound 11): much weaker inhibitory activity; % Cell Viability (N9 microglial cells; mouse, 24 h, 25 µM): 109.04 ± 4.85%; % Cell Viability (N9 microglial cells; mouse, 24 h, 50 µM): 97.19 ± 6.46%
13 | CC(C)CCC1(O)OC2C(O)C3C4CCC5CC(OC6OC(CO)C(O)C(O)C6OC6OC(CO)C(O)C(O)C6O)CCC5(C)C4CCC3(C)C2C1C (stereo not drawn) [Compound 5, Anemarrhenasaponin I] | – | – | 29.82 ± 0.24 | 19.14 ± 0.59 | – | – | % Inhibition of NO Production [2, 7]: 6.36 ± 0.76 %; % Inhibition of NO Production [2, 8]: 39.90 ± 1.85 %; cytotoxicity against N9 microglial cells (in words) (N9 microglial cells): not; % Cell Viability (N9 microglial cells; mouse, 24 h, 25 µM): 110.42 ± 4.67%; % Cell Viability (N9 microglial cells; mouse, 24 h, 50 µM): 115.47 ± 6.83%
14 | O=c1cc(-c2ccc(O)cc2)oc2cc(O)c([C@@H]3O[C@H](CO)[C@@H](O)[C@H](O)[C@H]3O)c(O)c12 [Compound 20, Isovitexin] | 135 ± 11.8 | 95.7 ± 2.75 | 28.39 ± 0.07 | 22.82 ± 0.27 | 10.2 ± 4.73 | 29.8 ± 0.6 | –
15 | N[C@@H](Cc1c[nH]c2ccccc12)C(=O)O [Compound 24, Tryptophan] | 105 ± 6.13 | 92.4 ± 8.71 | 30.49 ± 0.93 | 24.19 ± 0.72 | – | – | inhibition at 25 µM [2, 5]: 4.24 ± 2.92%; inhibition at 50 µM [2, 6]: 24 ± 2.27%
16 | COc1ccc(C(=O)c2ccc(O)cc2)c(OC2OC(CO)C(O)C(O)C2O)c1O (stereo not drawn) [Compound 2, Zimoside A] | 97.2 ± 3.27 | 94.6 ± 5.47 | 26.64 ± 1.13 | 21.41 ± 0.92 | 16.3 ± 3.55 | 32.8 ± 2.88 | –
17 | C[C@@H]1O[C@@H](O[C@H]2[C@H](OC(=O)[C@]34CCC(C)(C)C[C@H]3C3=CC[C@@H]5[C@@]6(C)C[C@H](O)[C@H](O[C@@H]7O[C@H](CO)[C@@H](O)[C@H](O[C@@H]8O[C@H](CO)[C@@H](O)[C@H](O)[C@H]8O)[C@H]7O)C(CO)(CO)[C@@H]6CC[C@@]5(C)[C@]3(C)C[C@H]4O)OC[C@H](O)[C@@H]2O)[C@H](O)[C@H](O)[C@H]1O[C@@H]1OC[C@@H](O)[C@H](O[C@@H]2OC[C@](O)(CO)[C@H]2O)[C@H]1O [Compound 16, Platycodin D2] | 114 ± 4.62 | 101 ± 1.83 | 33.68 ± 1.44 | 24.94 ± 0.45 | -5.78 ± 4.51 | 21.7 ± 1.4 | –
18 | CC(CCC1(O)OC2CC3C4CCC5CC(OC6OC(CO)C(OC7OC(CO)C(O)C(OC8OCC(O)C(O)C8O)C7OC7OC(CO)C(O)C(O)C7O)C(O)C6O)C(O)CC5(C)C4CCC3(C)C2C1C)COC1OC(CO)C(O)C(O)C1O (stereo not drawn) [Compound 7, Hostaplantagineoside C] | 84.9 ± 1.82 | 79.7 ± 6.03 | 32.76 ± 0.85 | 23.52 ± 0.37 | – | – | inhibition at 25 µM [2, 11]: -3.57 ± 8.75%; inhibition at 50 µM [2, 12]: 25.8 ± 2.4%
19 | CC(C)CCC1(O)OC2C(O)C3C4CCC5CC(OC6OC(CO)C(O)C(O)C6OC6OC(CO)C(O)C(O)C6O)CCC5(C)C4CCC3(C)C2C1C (stereo not drawn) [Compound 4, Anemarrhenasaponin II] | – | – | 9.52 ± 0.84 | 3.80 ± 0.53 | – | – | % Inhibition of NO Production [2, 8]: 87.98 ± 2.99 %; cytotoxicity against N9 microglial cells (in words) (N9 microglial cells): potent cytotoxicity; cell viability reduced to (N9 microglial cells; mouse, 24 h): ≤ 60%; % Cell Viability (N9 microglial cells; mouse, 24 h, 25 µM): 63.92 ± 5.98 %; % Cell Viability (N9 microglial cells; mouse, 24 h, 50 µM): 8.57 ± 0.11 %

From publication PMC6222787, “Anti-Inflammatory Activities of Compounds Isolated from the Rhizome of Anemarrhena asphodeloides” (Molecules : A Journal of Synthetic Chemistry and Natural …, 2018)
